Results from ChEMBL document CHEMBL5696442, “Discovery of type II inhibitors of TGFβ-activated kinase 1 (TAK1) and mitogen-activated protein kinase kinase kinase kinase 2 (MAP4K2)” (J Med Chem, 2015).
The source made the active and inactive calls. The rule behind the calls is not given here.

Columns and labels:
[1] = target: Serine/threonine-protein kinase Nek6 (Homo sapiens) (UniProt Q9HC98); test: Inhibition of NEK6 (unknown origin) at 10 uM by Ambit Kinomescan binding assay
[2] = target: T1, Serine/threonine-protein kinase Nek1 (Homo sapiens) (UniProt Q96PY6); test: Inhibition of NEK1 Lys2 labeling site in human A-375 cells at 0.05 uM by KiNativ Profiling analysis relative to control; assay type: cell-based
T1 sequence (whole entry): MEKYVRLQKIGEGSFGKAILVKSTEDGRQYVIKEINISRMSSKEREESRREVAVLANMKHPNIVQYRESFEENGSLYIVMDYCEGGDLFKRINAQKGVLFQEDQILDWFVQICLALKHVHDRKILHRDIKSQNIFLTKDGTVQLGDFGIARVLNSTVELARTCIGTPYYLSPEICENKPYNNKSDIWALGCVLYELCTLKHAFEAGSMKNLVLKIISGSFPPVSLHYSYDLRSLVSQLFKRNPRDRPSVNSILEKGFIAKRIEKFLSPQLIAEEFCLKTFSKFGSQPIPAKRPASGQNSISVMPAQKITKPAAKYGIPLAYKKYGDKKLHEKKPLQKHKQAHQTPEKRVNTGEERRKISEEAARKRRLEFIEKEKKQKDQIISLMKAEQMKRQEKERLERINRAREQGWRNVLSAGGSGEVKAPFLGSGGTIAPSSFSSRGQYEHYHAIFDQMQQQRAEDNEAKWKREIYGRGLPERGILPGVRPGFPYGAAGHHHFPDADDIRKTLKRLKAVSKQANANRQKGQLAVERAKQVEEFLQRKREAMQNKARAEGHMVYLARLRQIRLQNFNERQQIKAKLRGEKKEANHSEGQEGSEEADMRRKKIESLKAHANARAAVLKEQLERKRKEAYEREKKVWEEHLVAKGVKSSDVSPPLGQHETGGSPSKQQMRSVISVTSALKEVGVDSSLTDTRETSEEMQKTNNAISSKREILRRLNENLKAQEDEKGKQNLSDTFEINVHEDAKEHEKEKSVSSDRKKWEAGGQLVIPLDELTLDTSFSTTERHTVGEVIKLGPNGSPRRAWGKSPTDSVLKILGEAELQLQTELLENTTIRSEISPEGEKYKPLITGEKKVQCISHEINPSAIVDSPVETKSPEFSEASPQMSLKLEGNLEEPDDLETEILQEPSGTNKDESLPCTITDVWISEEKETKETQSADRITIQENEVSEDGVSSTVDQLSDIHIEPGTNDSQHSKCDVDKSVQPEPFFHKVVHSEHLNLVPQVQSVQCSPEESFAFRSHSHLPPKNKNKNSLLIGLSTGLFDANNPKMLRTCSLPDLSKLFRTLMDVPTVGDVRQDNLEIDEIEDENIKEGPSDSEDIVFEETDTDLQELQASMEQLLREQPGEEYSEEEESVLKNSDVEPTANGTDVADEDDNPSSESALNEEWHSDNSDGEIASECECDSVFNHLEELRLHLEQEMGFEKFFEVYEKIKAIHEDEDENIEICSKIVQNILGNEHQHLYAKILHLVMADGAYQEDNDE

[3] = target: T2, Serine/threonine-protein kinase Sgk3 (Homo sapiens) (UniProt Q96BR1); test: Inhibition of SGK3 Lys1 labeling site in human A-375 cells at 0.05 uM by KiNativ Profiling analysis relative to control; assay type: cell-based
T2 sequence (whole entry): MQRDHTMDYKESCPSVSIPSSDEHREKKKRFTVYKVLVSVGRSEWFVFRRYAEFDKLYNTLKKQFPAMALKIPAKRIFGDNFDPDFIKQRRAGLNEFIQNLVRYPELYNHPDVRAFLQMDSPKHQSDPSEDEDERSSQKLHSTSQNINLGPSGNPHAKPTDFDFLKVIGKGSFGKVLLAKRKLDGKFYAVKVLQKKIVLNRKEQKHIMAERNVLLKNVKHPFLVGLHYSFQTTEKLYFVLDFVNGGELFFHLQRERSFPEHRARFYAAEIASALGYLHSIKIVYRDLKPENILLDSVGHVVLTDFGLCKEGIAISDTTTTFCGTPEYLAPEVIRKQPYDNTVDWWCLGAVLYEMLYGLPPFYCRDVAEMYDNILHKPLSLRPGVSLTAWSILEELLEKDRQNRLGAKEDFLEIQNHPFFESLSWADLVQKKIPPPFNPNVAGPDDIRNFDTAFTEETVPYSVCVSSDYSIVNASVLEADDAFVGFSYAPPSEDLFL

[4] = target: Calcium/calmodulin-dependent protein kinase type II subunit gamma (Homo sapiens) (UniProt Q13555); test: Inhibition of CaMK2g K1 labeling site in human Huh-7 cells at 1 uM by KiNativ Profiling analysis relative to control; assay type: cell-based
Chain of Calcium/calmodulin-dependent protein kinase type II subunit gamma (Homo sapiens) (Q13555 whole entry): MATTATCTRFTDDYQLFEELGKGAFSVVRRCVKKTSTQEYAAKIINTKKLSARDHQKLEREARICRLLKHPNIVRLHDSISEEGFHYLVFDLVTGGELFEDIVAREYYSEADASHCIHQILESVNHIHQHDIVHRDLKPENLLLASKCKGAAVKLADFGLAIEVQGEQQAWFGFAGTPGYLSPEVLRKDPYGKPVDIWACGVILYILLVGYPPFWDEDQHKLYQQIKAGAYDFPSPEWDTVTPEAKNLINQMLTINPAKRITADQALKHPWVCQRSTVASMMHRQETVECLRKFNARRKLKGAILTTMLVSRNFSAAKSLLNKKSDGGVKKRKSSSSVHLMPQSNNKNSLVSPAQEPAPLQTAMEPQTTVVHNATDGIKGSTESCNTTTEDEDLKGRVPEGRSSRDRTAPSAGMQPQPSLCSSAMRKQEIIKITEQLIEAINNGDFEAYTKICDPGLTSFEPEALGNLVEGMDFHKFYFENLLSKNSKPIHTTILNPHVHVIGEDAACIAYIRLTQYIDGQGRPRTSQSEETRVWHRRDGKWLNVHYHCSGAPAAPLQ

[5] = target: Angiopoietin-1 receptor (Homo sapiens) (UniProt Q02763); test: Inhibition of TIE2 (unknown origin) at 10 uM by Ambit Kinomescan binding assay relative to control; values are per cent of control
Chain of Angiopoietin-1 receptor (Homo sapiens) (Q02763 whole entry): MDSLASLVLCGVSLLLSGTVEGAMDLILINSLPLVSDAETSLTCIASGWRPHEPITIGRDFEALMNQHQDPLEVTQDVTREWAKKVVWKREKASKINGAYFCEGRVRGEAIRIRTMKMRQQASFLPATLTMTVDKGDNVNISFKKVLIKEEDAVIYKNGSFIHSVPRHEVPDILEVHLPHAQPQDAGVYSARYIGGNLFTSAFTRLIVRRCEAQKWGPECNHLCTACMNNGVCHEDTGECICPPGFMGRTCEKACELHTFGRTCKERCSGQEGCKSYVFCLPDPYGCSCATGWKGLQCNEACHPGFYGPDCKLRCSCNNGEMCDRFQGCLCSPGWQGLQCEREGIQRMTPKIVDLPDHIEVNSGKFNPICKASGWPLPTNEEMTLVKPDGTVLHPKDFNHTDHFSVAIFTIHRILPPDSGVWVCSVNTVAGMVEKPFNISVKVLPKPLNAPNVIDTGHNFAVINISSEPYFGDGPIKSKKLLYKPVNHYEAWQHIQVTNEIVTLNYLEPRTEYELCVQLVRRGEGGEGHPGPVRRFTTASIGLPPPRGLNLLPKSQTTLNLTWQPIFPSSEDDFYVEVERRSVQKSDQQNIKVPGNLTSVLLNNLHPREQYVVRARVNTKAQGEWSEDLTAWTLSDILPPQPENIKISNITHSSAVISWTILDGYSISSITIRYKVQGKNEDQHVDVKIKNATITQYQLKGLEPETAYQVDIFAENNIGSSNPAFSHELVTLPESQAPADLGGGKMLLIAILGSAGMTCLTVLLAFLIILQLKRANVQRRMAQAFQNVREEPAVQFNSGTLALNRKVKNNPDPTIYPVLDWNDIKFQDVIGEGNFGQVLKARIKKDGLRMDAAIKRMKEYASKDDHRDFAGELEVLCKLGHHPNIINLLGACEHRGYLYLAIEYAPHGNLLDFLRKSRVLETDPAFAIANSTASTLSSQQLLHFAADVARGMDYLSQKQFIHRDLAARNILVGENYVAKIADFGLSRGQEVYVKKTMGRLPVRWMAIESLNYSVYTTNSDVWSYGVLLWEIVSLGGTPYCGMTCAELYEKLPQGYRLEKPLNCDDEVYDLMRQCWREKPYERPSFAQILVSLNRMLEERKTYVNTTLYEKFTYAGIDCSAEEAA

[6] = target: Proto-oncogene tyrosine-protein kinase receptor Ret (Homo sapiens) (UniProt P07949); test: Inhibition of RET (unknown origin) at 1 uM by Ambit Kinomescan binding assay relative to control; values are per cent of control
Chain of Proto-oncogene tyrosine-protein kinase receptor Ret (Homo sapiens) (P07949 whole entry): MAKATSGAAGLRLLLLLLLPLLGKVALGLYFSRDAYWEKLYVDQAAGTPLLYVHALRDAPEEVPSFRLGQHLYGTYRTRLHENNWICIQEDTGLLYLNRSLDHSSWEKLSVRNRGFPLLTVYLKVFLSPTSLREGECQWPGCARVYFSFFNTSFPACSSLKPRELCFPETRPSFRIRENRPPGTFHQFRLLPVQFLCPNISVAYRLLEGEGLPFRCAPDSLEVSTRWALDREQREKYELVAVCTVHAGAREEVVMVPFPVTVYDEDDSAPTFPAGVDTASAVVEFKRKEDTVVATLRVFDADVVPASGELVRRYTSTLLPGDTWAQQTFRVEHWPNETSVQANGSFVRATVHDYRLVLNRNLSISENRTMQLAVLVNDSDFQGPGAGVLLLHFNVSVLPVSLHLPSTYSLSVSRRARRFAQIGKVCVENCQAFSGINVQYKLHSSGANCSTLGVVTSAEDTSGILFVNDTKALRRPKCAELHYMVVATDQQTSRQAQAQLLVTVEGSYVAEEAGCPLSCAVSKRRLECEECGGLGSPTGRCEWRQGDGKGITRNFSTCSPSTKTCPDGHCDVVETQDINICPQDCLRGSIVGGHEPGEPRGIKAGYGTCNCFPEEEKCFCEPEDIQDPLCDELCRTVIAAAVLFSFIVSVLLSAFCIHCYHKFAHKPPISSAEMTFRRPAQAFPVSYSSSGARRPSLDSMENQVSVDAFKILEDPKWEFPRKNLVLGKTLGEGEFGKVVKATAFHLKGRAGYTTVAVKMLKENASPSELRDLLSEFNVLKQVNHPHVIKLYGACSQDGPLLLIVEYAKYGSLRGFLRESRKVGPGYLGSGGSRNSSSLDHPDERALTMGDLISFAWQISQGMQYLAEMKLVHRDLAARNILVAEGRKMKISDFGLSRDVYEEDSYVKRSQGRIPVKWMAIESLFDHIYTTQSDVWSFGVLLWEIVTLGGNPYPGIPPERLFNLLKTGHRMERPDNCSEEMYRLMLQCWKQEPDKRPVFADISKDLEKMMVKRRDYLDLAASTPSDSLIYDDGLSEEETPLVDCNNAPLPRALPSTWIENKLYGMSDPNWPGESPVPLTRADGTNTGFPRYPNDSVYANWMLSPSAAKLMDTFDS

[7] = target: BMP-2-inducible protein kinase (Homo sapiens) (UniProt Q9NSY1); test: Inhibition of BIKE (unknown origin) at 1 uM by Ambit Kinomescan binding assay relative to control; values are per cent of control
Chain of BMP-2-inducible protein kinase (Homo sapiens) (Q9NSY1 whole entry, looked up): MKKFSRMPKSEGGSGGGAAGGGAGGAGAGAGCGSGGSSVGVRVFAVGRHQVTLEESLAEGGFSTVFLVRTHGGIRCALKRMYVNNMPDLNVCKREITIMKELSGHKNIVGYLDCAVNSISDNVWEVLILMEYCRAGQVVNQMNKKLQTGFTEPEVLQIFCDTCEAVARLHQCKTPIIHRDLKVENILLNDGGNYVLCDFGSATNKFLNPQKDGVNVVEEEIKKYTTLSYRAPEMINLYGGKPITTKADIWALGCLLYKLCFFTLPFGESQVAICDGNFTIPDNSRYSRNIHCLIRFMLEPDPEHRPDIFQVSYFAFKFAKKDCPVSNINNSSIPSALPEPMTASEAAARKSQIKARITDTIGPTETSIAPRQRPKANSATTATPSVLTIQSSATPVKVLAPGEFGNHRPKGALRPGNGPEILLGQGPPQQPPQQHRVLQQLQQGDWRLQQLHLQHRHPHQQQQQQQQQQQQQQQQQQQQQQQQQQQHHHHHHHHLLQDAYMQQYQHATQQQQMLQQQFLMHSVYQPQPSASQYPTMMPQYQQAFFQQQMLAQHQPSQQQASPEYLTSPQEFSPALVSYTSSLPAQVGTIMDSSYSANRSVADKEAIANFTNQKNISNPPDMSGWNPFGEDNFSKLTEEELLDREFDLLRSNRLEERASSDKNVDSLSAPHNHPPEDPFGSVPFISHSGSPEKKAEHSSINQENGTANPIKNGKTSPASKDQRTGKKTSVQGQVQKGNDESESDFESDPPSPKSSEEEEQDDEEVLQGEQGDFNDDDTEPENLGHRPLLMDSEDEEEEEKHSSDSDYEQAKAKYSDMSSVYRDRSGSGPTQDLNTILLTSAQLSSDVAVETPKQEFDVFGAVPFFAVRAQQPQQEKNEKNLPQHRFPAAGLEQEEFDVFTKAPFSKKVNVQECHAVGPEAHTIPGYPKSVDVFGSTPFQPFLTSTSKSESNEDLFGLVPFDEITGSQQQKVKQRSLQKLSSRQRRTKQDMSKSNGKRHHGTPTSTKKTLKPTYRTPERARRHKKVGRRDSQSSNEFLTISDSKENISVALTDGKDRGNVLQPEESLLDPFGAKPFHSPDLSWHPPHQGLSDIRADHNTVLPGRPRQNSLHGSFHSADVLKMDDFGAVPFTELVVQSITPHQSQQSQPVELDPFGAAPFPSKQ

Chain of Serine/threonine-protein kinase Nek6 (Homo sapiens) (Q9HC98 whole entry): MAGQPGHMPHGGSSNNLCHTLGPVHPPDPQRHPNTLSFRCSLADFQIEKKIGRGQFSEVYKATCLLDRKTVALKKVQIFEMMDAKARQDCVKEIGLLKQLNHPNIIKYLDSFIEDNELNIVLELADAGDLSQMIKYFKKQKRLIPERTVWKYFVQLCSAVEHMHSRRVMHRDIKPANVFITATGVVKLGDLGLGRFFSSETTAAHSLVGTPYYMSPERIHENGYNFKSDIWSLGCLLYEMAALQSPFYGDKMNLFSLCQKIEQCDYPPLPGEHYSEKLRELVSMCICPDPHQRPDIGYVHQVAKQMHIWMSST

| Structure (SMILES) | inhibition [1] | inhibition [2] [%] | inhibition [3] [%] | inhibition [4] [%] | residual activity [5] [%] | percent of control [6] [%] | residual activity [7] [%] |
| --- | --- | --- | --- | --- | --- | --- | --- |
| CCN1CCN(Cc2ccc(NC(=O)c3ccc(C)c(Oc4ccnc5[nH]ccc45)c3)cc2C(F)(F)F)CC1 | inactive | -7.1 | 3.5 | -7.7 | 0 |  |  |
| CCN1CCN(Cc2ccc(NC(=O)c3ccc(C)c(/C=C/c4cnc5[nH]ccc5c4OC)c3)cc2C(F)(F)F)CC1 |  |  |  |  |  | 0 | 25 |
